# From article PMC4981864, “Novel pH-Sensitive Cyclic Peptides” (Scientific Reports, 2016)
# What was measured:
# 4T1 mammary tumors = test: Ex vivo fluorescence imaging of tumor and organs after IV Alexa546-peptides; type: in vivo; conditions: 24 hours after IV, three mice
# Protocol: The murine 4T1 xenograft model, which closely mimics stage IV of human breast cancer, was used in our study. Small 4T1 tumor (tumor volume <150 mm^3) generates a significant level of lactate and serves as a good model of an aggressive, acidic tumor[35]. All peptides were covalently conjugated with Alexa546-malemide. […] The mean fluorescence of tumor, muscle, kidney, liver and lungs were recorded and analyzed (Fig. 6).
# All animal studies were conducted according to the animal protocol AN04-12-011 approved by the Institutional Animal Care and Use Committee at the University of Rhode Island, in compliance with the principles and procedures outlined by NIH for the Care and Use of Animals. 4T1 breast tumors were established by subcutaneous injection of 4T1 cells (8 × 10^5 cells/0.1 mL/flank) in the right flank of adult female BALB/c mice (about 19–22 g weight) obtained from Harlan Laboratories. When tumors reached about 6 mm in diameter single tail vein injections of 100 μl of 40 μM Alexa546-peptides were performed. […] Mean fluorescence intensity of tumor and organs was calculated using Kodak software.
# [1] = Dual quenching assay (acrylamide / 10-DN); type: physicochemical; conditions: 7 μM peptide, 2.1 mM POPC
# From the text: To establish localization of the peptides within a lipid bilayer of membrane, dual quenching assay[28] was employed (Fig. 3 and Table S3). Effective quenching of fluorescence by acrylamide would occur only for tryptophan residues exposed to polar parts of the outer or inner leaflets of the bilayer. At the same time, tryptophan residues located in the middle of a membrane would be effectively quenched by 10-DN. The result of the dual quenching assay allows establishing if tryptophan residues were located in the middle of a membrane or close to the polar headgroups of the bilayer. […] Therefore, we also performed Förster resonance energy transfer (FRET) assay[29] (Fig. 4). First, symmetrically-labelled by NBD dye, POPC liposomes were prepared. Then, membrane-impermeable dithionite was used to chemically modify exposed NBD, which led to the quenching of NBD fluorescence. Thus, NBD dyes located at the outer leaflet of the bilayer were deactivated and excess of dithionite was removed by gel filtration. As a result, asymmetrically-labelled liposomes with active NBD at the inner leaflet were obtained. FRET was monitored from tryptophan residues of the peptides to NBD. Energy transfer might occur only when both fluorophores are in proximity to each other (within 5–15 Å). Thus, when tryptophan residues located at the outer leaflet of the bilayer no significant energy transfer to NBD at the inner leaflet would occur (the distance is about 50–60 Å). […] All other peptides were located at the outer leaflet of the bilayer at pH 8. Drop of pH promoted partitioning of all cyclic peptides into bilayer, which highest FRET for the c[E4W5C] at pH 3.
# POPC liposomes without and with 10% of the lipids replaced by 10-doxylnonadecane (10-DN) (Avanti Polar Lipids) were prepared in 10 mM citrate-phosphate buffer pH 8.0. Peptides and POPC liposomes were mixed to generate final concentrations of 7 μM peptide and 2.1 mM POPC without and with 10-DN. […] Quencher, acrylamide (Sigma-Aldrich), was added to the samples of POPC liposomes containing no 10-DN, to have final concentration of 235 mM acrylamide. Concentration of peptides in all samples was kept constant. To observe quenching of tryptophan fluorescence by 10-DN or acrylamide, the tryptophan fluorescence was recorded as described above. The appropriate POPC blanks were measured and subtracted from the measured spectra before analysis. The percentage of quenching was calculated.
# [2] = Calculated weak-acid distribution Ci/Ce between inner and outer leaflets; conditions: pKa 5.7
# From the text: Thus, cyclic peptides could be considered as a weak acid with multiple protonatable groups, which can diffuse across the bilayer. For weak acids, the intracellular-extracellular distribution, Ci/Ce, should be calculated according to the following equation: […]
# where pHi and pHe are the intracellular and extracellular pH values, respectively. Since the cyclic peptides have affinity to the membrane, we consider Ci and Ce as the concentrations of the peptide on inner and outer leaflets, respectively. […] However, the same ratio increases to 4.5, 7.8, and 10.9 if extracellular pHe would be 6.5, 6.2 and 6.0, respectively. We assume that the symmetrical WE peptides have the same mechanism of action as an asymmetric peptide, however they have less favorable localization of Trp and Glu residues, which reduces their ability to accumulate at the inner leaflet of bilayer of cellular membranes and target acidic tumors. Leu-containing peptides are less advantageous due to their reduced affinity to the headgroup part of the bilayer and high affinity to the center of the membrane.
# [3] = Steady-state tryptophan fluorescence and CD with and without POPC liposomes; type: physicochemical
# Protocol: Large unilamellar vesicles (LUVs) were prepared by extrusion. POPC, 1-palmitoyl-2-oleoyl-sn-glycero-3-phosphocholine (Avanti Polar Lipids), or a mixture of POPC with 0.5% of 18:1 NBD-PE, 1,2-dioleoyl-sn-glycero-3-phosphoethanolamine-N-7-nitro-2-1,3-benzoxadiazol-4-yl ammonium salt (Avanti Polar Lipids) were dissolved in chloroform, desolvated on a rotary evaporator, and dried under high vacuum for several hours. The phospholipid film was then rehydrated in 10 mM phosphate buffer pH 8.0, vortexed until the lipid bilayer was completely dissolved, and repeatedly (15–21 times) extruded through the membranes with 50 nm pore sizes to obtain LUVs.
# Freshly prepared peptides and POPC vesicles were mixed to have 5 μM of a peptide and 1.25 mM of lipids in the final solution. Steady-state fluorescence measurements were carried out on a PC1 spectrofluorometer (ISS, Inc.) under temperature control at 25 °C. Tryptophan fluorescence was excited at 280 nm (there is no Phe or Tyr in the peptides) and recorded with the excitation and emission slits set at 1 nm. The polarizers in the excitation and emission paths were set at the “magic” angle (54.7° from the vertical orientation) and vertically (0°), respectively. Steady state CD measurements were carried out in MOS 450 spectropolarimeter (Bio-Logic, Inc.) with the same concentrations of peptide and lipids used in fluorescence measurements.
compound,measurement,setting,value
O=C(O)CC[C@@H]1NC(=O)[C@H](CS)NC(=O)[C@H](Cc2c[nH]c3ccccc23)NC(=O)[C@H](Cc2c[nH]c3ccccc23)NC(=O)[C@H](Cc2c[nH]c3ccccc23)NC(=O)[C@H](Cc2c[nH]c3ccccc23)NC(=O)[C@H](Cc2c[nH]c3ccccc23)NC(=O)[C@H](CCC(=O)O)NC(=O)[C@H](CCC(=O)O)NC(=O)[C@H](CCC(=O)O)NC1=O [c[E4W5C]],Tumor/Muscle ratio,4T1 mammary tumors,5.6
same,"percentage of fluorescence quenching, Pep-PC+AC pH3","[1]; 235 mM acrylamide, pH 3",54%
same,"percentage of fluorescence quenching, Pep-PC+AC pH8","[1]; 235 mM acrylamide, pH 8",61%
same,"percentage of fluorescence quenching, Pep-PC+10-DN pH3","[1]; 10% of lipids replaced by 10-DN, pH 3",52%
same,"percentage of fluorescence quenching, Pep-PC+10-DN pH8","[1]; 10% of lipids replaced by 10-DN, pH 8",49%
same,"concentration ratio at the inner and outer leaflets, Ci/Ce","[2]; pHe 6.0, pHi = 7.2",10.9
same,"concentration ratio at the inner and outer leaflets, Ci/Ce","[2]; pHe 6.2, pHi = 7.2",7.8
same,"concentration ratio at the inner and outer leaflets, Ci/Ce","[2]; pHe 6.5, pHi = 7.2",4.5
same,"concentration ratio at the inner and outer leaflets, Ci/Ce","[2]; pHe = 7.4, pHi = 7.2",0.6
same,"maximum position of the fluorescence spectrum λmax, Pep, pH8","[3]; peptide in phosphate buffer pH 8, no liposomes, 5 μM peptide, excitation 280 nm, 25 °C",350.6±0.2 nm
same,"maximum position of the fluorescence spectrum λmax, Pep-PC, pH3","[3]; with POPC liposomes pH 3, 5 μM peptide, 1.25 mM lipids, excitation 280 nm, 25 °C",340.2±0.4 nm
same,"S, normalized area under the spectra, Pep-PC, pH3","[3]; with POPC liposomes pH 3, normalized on area for peptide at pH 8 in absence of POPC",2.4±0.5
same,"maximum position of the fluorescence spectrum λmax, Pep-PC, pH8","[3]; with POPC liposomes pH 8, 5 μM peptide, 1.25 mM lipids, excitation 280 nm, 25 °C",342.8±0.4 nm
same,"S, normalized area under the spectra, Pep-PC, pH8","[3]; with POPC liposomes pH 8, normalized on area for peptide at pH 8 in absence of POPC",2.4±0.3
